The values below come from patent US20020081602A1, “Method for the detection of compounds that modulate the effects of the obese (ob) protein” (SmithKline Beecham p.1.c., priority 1996, published 2002).

One test concerns WRL68 cells. Briefly: c-fos expression by northern blotting in serum-starved WRL68 cells. Type of test: cell-based. Conditions: treated 5 minutes to 2 hours, normalised to beta-actin. On the procedure: 7. Detection of increased c-fos mRNA after treatment with leptin. C-fos mRNA may be detected by Northern, RT-PCR or “slot blot” analysis.
WRL68 cells were grown to confluence in their standard culture medium in the simultaneous presence of 10% foetal calf serum. At confluence the cells were transferred to serum-free medium for a minimum of 18 hours (lowering the serum concentration may also produce similar results). Serum-starved cells were then treated with leptin or with serum (as positive control for c-fos upregulation) for varying time periods from 5 minutes to 2 hours. RNA was extracted from the cells and subjected to gel electrophoresis and northern blotting. The blotted RNA was then probed with a c-fos labelled probe to analyze the expression of c-fos, the data being normalised by analysing the expression of beta-actin. […] Therefore WRL68 cells is expected to be suitable for identification of leptin mimetics. Other cell lines could also be identified via analysis of c-fos expression in response to leptin.

Test [1] deals with rat-1 fibroblasts over expressing insulin receptors. The following applies: Kroder et al. 1996; cited from earlier work.

In the case of “Leptin: secreted hormone that acts as signal from adipose tissue to other organs to regulate weight and energy balance”, the c-fos expression result in the test with WRL68 cells is “significantly enhanced”. The “insulin stimulated phosphorylation of the insulin receptor and insulin receptor substrate-I” value in test [1] is “inhibition”.
